# Measured values as given in ChEMBL document CHEMBL3739389, “2-Pyridylquinoloneantimalarials with improved antimalarial activity and physicochemical properties” (Medchemcomm, 2015).
# Tests used:
# [1] = system: Plasmodium falciparum; assay: Antimalarial activity against Plasmodium falciparum 3D7 infected in human erythrocytes assessed as growth inhibition after 48 hrs by SYBR Green 1 staining-based fluorescence assay; type: functional, organism-based; conditions: 3D7, 48 h
# [2] = system: cytochrome b-c1 complex; assay: Inhibition of cytochrome b-c1 complex bovine heart mitochondrial membranes assessed as reduction in cytochrome c reductase activity using decylubiquinol as substrate at 100 uM by UV-visible spectrophotometric analysis; design: species or system Bos taurus; conditions: cattle, probe decylubiquinol
# [3] = system: cytochrome b-c1 complex; assay: Inhibition of cytochrome b-c1 complex bovine heart mitochondrial membranes assessed as reduction in cytochrome c reductase activity using decylubiquinol as substrate at 1 uM by UV-visible spectrophotometric analysis; design: species or system Bos taurus; conditions: cattle, probe decylubiquinol
# [4] = Kinetic solubility of the compound in phosphate buffer at pH 1 at 200 uM; type: physicochemical; conditions: read-out: Kinetic_solubility
# [5] = Intrinsic clearance in rat hepatocytes at 3 uM assessed per 10^6 cells up to 45 mins […] by LC-MS/MS analysis; type: ADME, cell-based, Hepatocyte; conditions: read-out: CLH
# [6] = Kinetic solubility of the compound in fixanal buffer at pH 7.4 at 200 uM; type: physicochemical; conditions: read-out: Kinetic_solubility
# [7] = Intrinsic clearance in human liver microsomes at 3 uM assessed per mg of protein up to 45 mins in presence of NADPH by LC-MS/MS analysis; type: ADME; conditions: read-out: CLH
# [8] = system: Plasmodium falciparum; assay: Antimalarial activity against drug resistant Plasmodium falciparum TM90C2B infected in human erythrocytes assessed as growth inhibition after 48 hrs by SYBR Green 1 staining-based fluorescence assay; type: functional, organism-based
# [9] = system: Plasmodium falciparum; assay: Antimalarial activity against drug resistant Plasmodium falciparum W2 infected in human erythrocytes assessed as growth inhibition after 48 hrs by SYBR Green 1 staining-based fluorescence assay; type: functional, organism-based; conditions: W2, 48 h
solubility kinetic at 200 µM [4] [µM],solubility kinetic at 200 µM [6] [µM],SMILES,IC50 [1] [nM],further results
–,–,COc1cccc2[nH]c(-c3ccc(-c4ccc(OC(F)(F)F)cc4)nc3)c(C)c(=O)c12,> 1000,–
–,–,O=c1c2c([nH]c3ccccc13)CN(Cc1ccc(OC(F)(F)F)cc1)C2,200,–
140,3.6,Cc1c(-c2cncc(-c3ccc(OC(F)(F)F)cc3)c2)[nH]c2ccccc2c1=O,41,inhibition at 100 µM [2]: 20%; inhibition at 1 µM [3]: 25%; hepatocyte CLint at 3 µM [5]: 1.8 µL/min/1e6 cells; microsomal CLint at 3 µM [7]: 12.5 µL/min/mg
–,–,Cc1c(-c2cncc(-c3ccc(Cl)c(Cl)c3)c2)[nH]c2ccccc2c1=O,40,hepatocyte CLint at 3 µM [5]: 9.9 µL/min/1e6 cells; microsomal CLint at 3 µM [7]: 5.6 µL/min/mg
–,–,Cc1c(-c2cccc(-c3ccc(OC(F)(F)F)cc3)n2)[nH]c2ccccc2c1=O,390,–
–,–,COc1ccc2c(=O)c(C)c(-c3cc(-c4ccc(OC(F)(F)F)cc4)ccn3)[nH]c2c1,150,–
–,–,O=C1C(O)=C([C@H]2CC[C@H](c3ccc(Cl)cc3)CC2)C(=O)c2ccccc21 [ATOVAQUONE],–,IC50 [8]: 9910 nM; IC50 [9]: 0.3 nM
–,–,Cc1c(-c2ccc(-c3ccc(OC(F)(F)F)cc3)nc2)[nH]c2c(O)cccc2c1=O,> 1000,–
–,–,COc1cccc2c(=O)c(C)c(-c3ccc(-c4ccc(OC(F)(F)F)cc4)nc3)[nH]c12,> 1000,–
–,–,COc1ccc2c(=O)c(C)c(-c3cccc(-c4ccc(OC(F)(F)F)cc4)n3)[nH]c2c1,149,–
–,–,COc1ccc2[nH]c(-c3ccc(-c4ccc(OC(F)(F)F)cc4)nc3)c(C)c(=O)c2c1,> 1000,–
–,–,O=c1c2c([nH]c3ccccc13)CN(Cc1ccc(Cl)c(Cl)c1)C2,70,–
–,–,Cc1c(-c2ccc(-c3ccc(OC(F)(F)F)cc3)nc2)[nH]c2ccc(O)cc2c1=O,326,–
–,–,COc1ccc2c(=O)c(C)c(-c3ccc(-c4ccc(Cl)c(Cl)c4)nc3)[nH]c2c1,200,–
2.6,< 1,COc1ccc2c(=O)c(C)c(-c3ccc(-c4ccc(OC(F)(F)F)cc4)nc3)[nH]c2c1,14,inhibition at 100 µM [2]: 55%; inhibition at 1 µM [3]: 98%
15,14,COc1ccc2c(=O)c(C)c(-c3cncc(-c4ccc(Cl)c(Cl)c4)c3)[nH]c2c1,18,inhibition at 100 µM [2]: 13%; inhibition at 1 µM [3]: 20%; hepatocyte CLint at 3 µM [5]: 4.9 µL/min/1e6 cells; microsomal CLint at 3 µM [7]: 14 µL/min/mg
–,–,Cc1c(-c2ccc(-c3ccc(OC(F)(F)F)cc3)cn2)[nH]c2ccccc2c1=O,> 1000,–
–,–,COc1ccc2c(=O)c(C)c(-c3ccc(-c4ccc(OC(F)(F)F)cc4)cn3)[nH]c2c1,> 1000,–
79,2.1,Cc1c(-c2ccnc(-c3ccc(OC(F)(F)F)cc3)c2)[nH]c2ccccc2c1=O,21,inhibition at 100 µM [2]: 52%; inhibition at 1 µM [3]: 81%; hepatocyte CLint at 3 µM [5]: 2.5 µL/min/1e6 cells; microsomal CLint at 3 µM [7]: 7.7 µL/min/mg

SMILES,solubility kinetic at 200 µM [4] [µM],solubility kinetic at 200 µM [6] [µM],IC50 [1] [nM],further results
COc1ccc2c(=O)c(C)c(-c3ccnc(-c4ccc(OC(F)(F)F)cc4)c3)[nH]c2c1,120,< 1,12,IC50 [8]: 7 nM; IC50 [9]: 4.2 nM; inhibition at 100 µM [2]: 63%; inhibition at 1 µM [3]: 85%
COc1ccc2c(=O)c(C)c(-c3cncc(-c4ccc(OC(F)(F)F)cc4)c3)[nH]c2c1,7.8,< 1,12,IC50 [8]: 7.2 nM; IC50 [9]: 4 nM; inhibition at 100 µM [2]: 19%; inhibition at 1 µM [3]: 81%; hepatocyte CLint at 3 µM [5]: 1.2 µL/min/1e6 cells; microsomal CLint at 3 µM [7]: 25.9 µL/min/mg
Cc1c(-c2ccc(-c3ccc(OC(F)(F)F)cc3)nc2)[nH]c2ccccc2c1=O,3.2,< 1,–,IC50 [8]: 156 nM; IC50 [9]: 48 nM; microsomal CLint at 3 µM [7]: 20.6 µL/min/mg
